Assay results from paper PMC2359919, “Molecular targeting of retinoic acid metabolism in neuroblastoma: the role of the CYP26 inhibitor R116010 in vitro and in vivo” (British Journal of Cancer, 2007).
Read-outs that look alike come from different tables or passages of the source.

Experiments:
[1] = Pharmacokinetic analysis of RA in an SH-SY5Y xenograft model (retinoid concentrations in plasma, liver, tumour by LC/MS); type: in vivo, CD-1 nude mice; settings: for % Total retinoids, tumour, 0.5 h / % Total retinoids, tumour, 2 h / % Total retinoids, tumour, 6 h / % Total retinoids, liver, 0.5 h / % Total retinoids, liver, 2 h / % Total retinoids, liver, 6 h / % Total retinoids, plasma, 0.5 h / % Total retinoids, plasma, 2 h / % Total retinoids, plasma, 6 h / concentration at 0.5 h / concentration at 2 h / concentration at 6 h: label = retinoid measured; for concentration at 0.5 h / concentration at 2 h / concentration at 6 h: po
Procedure: (§1) All in vivo experiments were approved by the relevant institutional animal welfare committees, and performed according to national law. Female athymic nude mice (CD-1 nu/nu, Charles River) used for antitumour studies were maintained and handled in isolators, under specific pathogen-free conditions, at 24°C with a 12 h light, 12 h dark cycle. Tumours were generated by implantation of SH-SY5Y cells subcutaneously (s.c.) into one flank of CD-1 nude mice (1 × 10^7 cells per animal).
(§2) Treatments began when the tumours were between 7 and 10 mm in length and breadth. Retinoids and R116010 were initially dissolved in DMSO before 10- or 20-fold dilutions in PBS, respectively. For pharmacokinetic studies, the animals were dosed with ATRA or 13cisRA (each 100 mg kg^−1) orally for 0.5, 2 and 6 h. For metabolism studies, animals were treated with R116010 orally at doses of 1.25 or 2.5 mg kg^−1 either immediately before the retinoid being studied, or up to three times (over 1–2 days) before dosing with the retinoid. At termination of experiments, animals were bled under terminal anaesthesia then killed by cervical dislocation. Plasma was immediately removed from the blood by centrifugation at 1000 g for 5 min and snap-frozen in liquid nitrogen in amber Eppendorfs. Tumour and liver samples were removed and snap-frozen, wrapped in foil, in liquid nitrogen.
(§3) Cell pellets obtained from retinoid incubations were re-suspended in 2 ml cell culture medium and disrupted by passing the samples several times through a syringe and hypodermic needle (25G × 1 inches, 0.5 mm × 25 mm; Terumo, Somerset, NJ, USA). Tumour and liver tissues were re-suspended in PBS and homogenised (T25 homogeniser, IKA Laboratories, Staufen, Germany). Retinoids were extracted as described previously ([Veal et al, 2002]; [Armstrong et al, 2005b]). Samples were reconstituted in 200 μl mobile phase A (n-hexane:dichloromethane:propan-2-ol, 400 : 1 : 0.27) and analysed by normal-phase HPLC as described previously ([Veal et al, 2002]). For LC/MS analysis, samples were reconstituted in 200 μl mobile phase A (50% acetonitrile, 50% (0.2%) acetic acid, v v^−1).
(§4) Resolution of retinoids was performed with a Luna C18(2) column (3 μm, 50 mm × 2 mm) using a Perkin Elmer LC (Beaconsfield, UK) system, consisting of a vacuum degasser, two series 200 pumps, a thermostatically controlled series 200 autosampler and a Waters 2487 UV absorbance detector. Retinoic isomers and metabolites were separated by gradient reversed-phase chromatography. An injection volume of 20 μl with a flow rate of 0.2 ml min^−1 was used with mobile phase A (50% acetonitrile, 50% (0.2%) acetic acid, v v^−1) and mobile phase B (acetonitrile, 0.1% acetic acid, v v^−1). Linear gradients were employed between the specified times as follows: 0, 100% A; 5 min, 100% A; 15 min, 100% B; 20 min, 100% B; 23 min, 100% A; 35 min, 100% A. An Applied Biosystems (Warrington, UK) API-2000 LC/MS/MS triple Q (quadrupole) mass spectrometer with electrospray ionisation source, controlled by Analyst software, was operated in single quadrupole negative mode for the detection of compounds.

[2] = Effect of R116010 on retinoid concentrations (plasma, liver, tumour) in an SH-SY5Y xenograft model, LC/MS; type: in vivo, CD-1 nude mice; settings: female, CD-1 nu/nu (athymic nude), mouse, tumour (SH-SY5Y xenograft), oral; 13cisRA 100 mg kg^−1 alone; SH-SY5Y tumour; 6 h; read-out: Tumour 13cisRA levels, control animals
Procedure: as §1, §2, §3, §4

[3] = after 13cisRA 100 mg kg^−1 oral, SH-SY5Y tumour
[4] = after 13cisRA 100 mg kg^−1 oral, liver
[5] = after 13cisRA 100 mg kg^−1 oral, plasma
[6] = after ATRA 100 mg kg^−1 oral, SH-SY5Y tumour
[7] = after ATRA 100 mg kg^−1 oral, liver
[8] = after ATRA 100 mg kg^−1 oral, plasma

SMILES: CC1=C(/C=C/C(C)=C/C=C/C(C)=C\C(=O)O)C(C)(C)CCC1 [13cisRA, 13-cis-retinoic acid]
- % Total retinoids, tumour, 0.5 h [1, 3]: 90%
- % Total retinoids, tumour, 2 h [1, 3]: 81%
- % Total retinoids, tumour, 6 h [1, 3]: 49%
- % Total retinoids, liver, 0.5 h [1, 4]: 75%
- % Total retinoids, liver, 2 h [1, 4]: 58%
- % Total retinoids, liver, 6 h [1, 4]: 18%
- % Total retinoids, plasma, 0.5 h [1, 5]: 93%
- % Total retinoids, plasma, 2 h [1, 5]: 93%
- % Total retinoids, plasma, 6 h [1, 5]: 78%
- Plasma % of total retinoids at all time points ([1]; after ATRA 100 mg kg^−1, plasma, 0.5, 2 and 6 h): < 10%
- % Total retinoids, tumour, 0.5 h [1, 6]: 2%
- % Total retinoids, tumour, 2 h [1, 6]: 3%
- % Total retinoids, tumour, 6 h [1, 6]: 3%
- % Total retinoids, liver, 0.5 h [1, 7]: 11%
- % Total retinoids, liver, 2 h [1, 7]: 5%
- % Total retinoids, liver, 6 h [1, 7]: 5%
- % Total retinoids, plasma, 0.5 h [1, 8]: 5%
- % Total retinoids, plasma, 2 h [1, 8]: 6%
- % Total retinoids, plasma, 6 h [1, 8]: 8%
- concentration at 0.5 h ([1]; female, CD-1 nu/nu (athymic nude), mouse, liver, 100 mg kg^−1, after 13cisRA 100 mg kg^−1 oral, liver, read-out: Liver concentration, 0.5 h): 3770 ± 1050 ng/g
- concentration at 2 h ([1]; female, CD-1 nu/nu (athymic nude), mouse, liver, 100 mg kg^−1, after 13cisRA 100 mg kg^−1 oral, liver, read-out: Liver concentration, 2 h): 2330 ± 110 ng/g
- concentration at 6 h ([1]; female, CD-1 nu/nu (athymic nude), mouse, liver, 100 mg kg^−1, after 13cisRA 100 mg kg^−1 oral, liver, read-out: Liver concentration, 6 h): 980 ± 120 ng/g
- concentration at 0.5 h ([1]; female, CD-1 nu/nu (athymic nude), mouse, liver, 100 mg kg^−1, after ATRA 100 mg kg^−1 oral, liver, read-out: Liver concentration, 0.5 h): 420 ± 300 ng/g
- concentration at 2 h ([1]; female, CD-1 nu/nu (athymic nude), mouse, liver, 100 mg kg^−1, after ATRA 100 mg kg^−1 oral, liver, read-out: Liver concentration, 2 h): 400 ± 80 ng/g
- concentration at 6 h ([1]; female, CD-1 nu/nu (athymic nude), mouse, liver, 100 mg kg^−1, after ATRA 100 mg kg^−1 oral, liver, read-out: Liver concentration, 6 h): 250 ± 60 ng/g
- concentration at 0.5 h ([1]; female, CD-1 nu/nu (athymic nude), mouse, plasma, 100 mg kg^−1, after 13cisRA 100 mg kg^−1 oral, plasma, read-out: Plasma concentration, 0.5 h): 14.2 ± 4.71 µM
- concentration at 2 h ([1]; female, CD-1 nu/nu (athymic nude), mouse, plasma, 100 mg kg^−1, after 13cisRA 100 mg kg^−1 oral, plasma, read-out: Plasma concentration, 2 h): 19.1 ± 3.26 µM
- concentration at 6 h ([1]; female, CD-1 nu/nu (athymic nude), mouse, plasma, 100 mg kg^−1, after 13cisRA 100 mg kg^−1 oral, plasma, read-out: Plasma concentration, 6 h): 4.69 ± 0.52 µM
- concentration at 0.5 h ([1]; female, CD-1 nu/nu (athymic nude), mouse, plasma, 100 mg kg^−1, after ATRA 100 mg kg^−1 oral, plasma, read-out: Plasma concentration, 0.5 h): 0.67 ± 0.55 µM
- concentration at 2 h ([1]; female, CD-1 nu/nu (athymic nude), mouse, plasma, 100 mg kg^−1, after ATRA 100 mg kg^−1 oral, plasma, read-out: Plasma concentration, 2 h): 1.55 ± 0.33 µM
- concentration at 6 h ([1]; female, CD-1 nu/nu (athymic nude), mouse, plasma, 100 mg kg^−1, after ATRA 100 mg kg^−1 oral, plasma, read-out: Plasma concentration, 6 h): 1.53 ± 0.66 µM
- Tmax ([1]; female, CD-1 nu/nu (athymic nude), mouse, plasma, 100 mg kg^−1 oral, sampled at 0.5, 2, 6 h, read-out: Time of peak plasma levels): 2 h
- concentration at 0.5 h ([1]; female, CD-1 nu/nu (athymic nude), mouse, tumour (SH-SY5Y xenograft), 100 mg kg^−1, after 13cisRA 100 mg kg^−1 oral, SH-SY5Y tumour, read-out: Tumour concentration, 0.5 h): 2000 ± 670 ng/g
- concentration at 2 h ([1]; female, CD-1 nu/nu (athymic nude), mouse, tumour (SH-SY5Y xenograft), 100 mg kg^−1, after 13cisRA 100 mg kg^−1 oral, SH-SY5Y tumour, read-out: Tumour concentration, 2 h): 2120 ± 570 ng/g
- concentration at 6 h ([1]; female, CD-1 nu/nu (athymic nude), mouse, tumour (SH-SY5Y xenograft), 100 mg kg^−1, after 13cisRA 100 mg kg^−1 oral, SH-SY5Y tumour, read-out: Tumour concentration, 6 h): 280 ± 40 ng/g
- concentration at 0.5 h ([1]; female, CD-1 nu/nu (athymic nude), mouse, tumour (SH-SY5Y xenograft), 100 mg kg^−1, after ATRA 100 mg kg^−1 oral, SH-SY5Y tumour, read-out: Tumour concentration, 0.5 h): 70 ± 70 ng/g
- concentration at 2 h ([1]; female, CD-1 nu/nu (athymic nude), mouse, tumour (SH-SY5Y xenograft), 100 mg kg^−1, after ATRA 100 mg kg^−1 oral, SH-SY5Y tumour, read-out: Tumour concentration, 2 h): 280 ± 70 ng/g
- concentration at 6 h ([1]; female, CD-1 nu/nu (athymic nude), mouse, tumour (SH-SY5Y xenograft), 100 mg kg^−1, after ATRA 100 mg kg^−1 oral, SH-SY5Y tumour, read-out: Tumour concentration, 6 h): 150 ± 30 ng/g
- concentration at 6 h [2]: 220 ± 40 ng/g
